Laboratory results reported in patent publication US8415469B2, “Compounds and methods for kinase modulation, and indications therefor” (Plexxikon Inc., priority 2005, dated 2013).

What was measured:
Format in all cases: biochemical
Plk1 = Plk1 (Homo sapiens, UniProt P53350); assay: AlphaScreen kinase assay, Plk1; conditions: read-out: IC50, activity toward kinase Plk1
Description: (§1) AlphaScreen assay was used to screen additional kinases. The assay is similarly dependent on the phosphorylation of a peptide substrate. In this assay, an antibody that recognizes phosphorylated substrate is bound to an acceptor bead. The peptide substrate is attached to biotin, which binds to a donor head that contains streptavidin. Thus phosphorylated substrate is bound by antibody and streptavidin, bringing the donor and acceptor heads into close proximity when kinase is not inhibited. The donor produces singlet oxygen which results in emission from the acceptor when they are in close proximity. Conversely, when kinase is inhibited, the donor and acceptor beads are not associated and the emission from the acceptor is reduced.
(§2) AlphaScreen assays were done using compounds dissolved in DMSO to a concentration of 20 mM. The compounds were diluted accordingly to the desired final concentrations in each sample well, using 1:3 serial dilution for a total of 8 concentration points.

Met = molecular target: T1, Met (Homo sapiens, UniProt P08581); assay: AlphaScreen kinase assay, Met; conditions: read-out: IC50, activity toward kinase Met
T1 construct: P1818.pETN6 BI-PTP MET G1056-G1364-X WT; His6 (N); made in house; host or cells: E. coli (PTP1B co-expressed)
Outline: (§3)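 Emission from acceptor beads reports phosphorylated biotin-peptide bridging antibody-coated acceptor and streptavidin donor beads; loss of signal reflects kinase inhibition. Eight-point, threefold dilution series prepared from 20 mM DMSO stocks.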

B-Raf V600E = molecular target: T2, B-Raf V600E (Homo sapiens, UniProt P15056, V600E); assay: AlphaScreen kinase assay, B-Raf V600E; conditions: read-out: IC50, activity toward kinase B-Raf V600E
T2 construct: P4254. pFastBacBD-CDC37 BRAF D437-K722-X, V600E; His6 with pFastBac HT leader (TEV site) (N); made in house; host or cells: Sf9 (baculovirus; chaperone CDC37 co-expressed)
T2 sequence (P15056 with tags, fused parts or gaps V600E): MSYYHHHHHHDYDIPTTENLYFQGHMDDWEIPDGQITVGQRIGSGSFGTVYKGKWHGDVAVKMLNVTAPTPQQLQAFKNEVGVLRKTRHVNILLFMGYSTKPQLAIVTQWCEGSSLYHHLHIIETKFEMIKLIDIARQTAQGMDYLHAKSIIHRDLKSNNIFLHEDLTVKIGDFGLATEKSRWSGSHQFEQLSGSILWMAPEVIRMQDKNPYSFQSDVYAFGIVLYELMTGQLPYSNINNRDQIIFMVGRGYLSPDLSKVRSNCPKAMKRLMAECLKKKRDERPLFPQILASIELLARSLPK

Stk6 = molecular target: T3, Stk6 (Homo sapiens, UniProt O14965); assay: Z'-Lyte FRET kinase assay (Invitrogen), Stk6; conditions: read-out: IC50, activity toward kinase Stk6
T3 construct: purchased Invitrogen (Carlsbad, Calif.), screening service
T3 sequence (O14965 1-403): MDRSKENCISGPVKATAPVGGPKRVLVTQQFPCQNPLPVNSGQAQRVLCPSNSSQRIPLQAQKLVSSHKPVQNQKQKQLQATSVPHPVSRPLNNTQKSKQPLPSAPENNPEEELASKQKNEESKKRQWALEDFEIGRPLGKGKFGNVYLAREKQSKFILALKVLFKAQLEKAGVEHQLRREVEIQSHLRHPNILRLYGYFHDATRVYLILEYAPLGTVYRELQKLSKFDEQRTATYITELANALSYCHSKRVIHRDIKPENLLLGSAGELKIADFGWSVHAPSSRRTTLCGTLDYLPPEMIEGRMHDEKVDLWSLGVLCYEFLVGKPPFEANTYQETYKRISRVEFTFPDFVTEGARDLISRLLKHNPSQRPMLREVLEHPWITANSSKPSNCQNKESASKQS

Jak3 = molecular target: T4, Jak3 (Homo sapiens, UniProt P52333); assay: AlphaScreen kinase assay, Jak3; conditions: read-out: IC50, activity toward kinase Jak3
T4 sequence (P52333 1-1124): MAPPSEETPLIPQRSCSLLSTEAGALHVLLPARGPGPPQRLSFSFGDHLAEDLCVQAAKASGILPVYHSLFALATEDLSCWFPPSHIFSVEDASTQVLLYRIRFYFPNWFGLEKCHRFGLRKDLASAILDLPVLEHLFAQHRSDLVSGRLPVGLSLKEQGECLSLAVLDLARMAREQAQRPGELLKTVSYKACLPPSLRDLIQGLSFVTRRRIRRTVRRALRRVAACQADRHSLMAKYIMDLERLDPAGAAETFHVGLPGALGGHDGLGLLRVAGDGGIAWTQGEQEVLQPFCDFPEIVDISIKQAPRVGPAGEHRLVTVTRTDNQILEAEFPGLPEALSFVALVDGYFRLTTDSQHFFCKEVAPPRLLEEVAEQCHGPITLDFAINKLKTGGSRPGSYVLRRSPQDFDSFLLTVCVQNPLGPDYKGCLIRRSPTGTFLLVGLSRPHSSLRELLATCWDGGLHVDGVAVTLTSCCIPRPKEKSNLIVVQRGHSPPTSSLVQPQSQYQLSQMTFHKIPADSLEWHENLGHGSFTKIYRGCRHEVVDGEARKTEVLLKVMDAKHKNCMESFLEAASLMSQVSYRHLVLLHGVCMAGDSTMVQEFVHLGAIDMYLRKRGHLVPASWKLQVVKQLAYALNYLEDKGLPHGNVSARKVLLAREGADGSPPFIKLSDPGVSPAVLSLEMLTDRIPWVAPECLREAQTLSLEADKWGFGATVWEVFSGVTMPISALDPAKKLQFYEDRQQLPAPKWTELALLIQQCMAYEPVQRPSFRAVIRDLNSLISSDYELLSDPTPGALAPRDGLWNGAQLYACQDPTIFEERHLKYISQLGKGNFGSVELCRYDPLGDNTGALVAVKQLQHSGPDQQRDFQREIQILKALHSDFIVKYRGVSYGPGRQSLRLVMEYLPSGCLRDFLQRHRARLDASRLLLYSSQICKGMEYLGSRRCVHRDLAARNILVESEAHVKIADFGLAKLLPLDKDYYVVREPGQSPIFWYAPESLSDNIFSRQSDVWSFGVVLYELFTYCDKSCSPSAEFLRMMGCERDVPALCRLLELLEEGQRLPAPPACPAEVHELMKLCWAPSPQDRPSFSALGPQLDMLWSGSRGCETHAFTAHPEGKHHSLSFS
Description: as §1, §2

Kdr = molecular target: T5, Kdr (Homo sapiens, UniProt P35968); assay: Z'-Lyte FRET kinase assay (Invitrogen), Kdr; conditions: read-out: IC50, activity toward kinase Kdr
T5 construct: purchased Invitrogen (assay run by Invitrogen)
T5 sequence (P35968 20-1356): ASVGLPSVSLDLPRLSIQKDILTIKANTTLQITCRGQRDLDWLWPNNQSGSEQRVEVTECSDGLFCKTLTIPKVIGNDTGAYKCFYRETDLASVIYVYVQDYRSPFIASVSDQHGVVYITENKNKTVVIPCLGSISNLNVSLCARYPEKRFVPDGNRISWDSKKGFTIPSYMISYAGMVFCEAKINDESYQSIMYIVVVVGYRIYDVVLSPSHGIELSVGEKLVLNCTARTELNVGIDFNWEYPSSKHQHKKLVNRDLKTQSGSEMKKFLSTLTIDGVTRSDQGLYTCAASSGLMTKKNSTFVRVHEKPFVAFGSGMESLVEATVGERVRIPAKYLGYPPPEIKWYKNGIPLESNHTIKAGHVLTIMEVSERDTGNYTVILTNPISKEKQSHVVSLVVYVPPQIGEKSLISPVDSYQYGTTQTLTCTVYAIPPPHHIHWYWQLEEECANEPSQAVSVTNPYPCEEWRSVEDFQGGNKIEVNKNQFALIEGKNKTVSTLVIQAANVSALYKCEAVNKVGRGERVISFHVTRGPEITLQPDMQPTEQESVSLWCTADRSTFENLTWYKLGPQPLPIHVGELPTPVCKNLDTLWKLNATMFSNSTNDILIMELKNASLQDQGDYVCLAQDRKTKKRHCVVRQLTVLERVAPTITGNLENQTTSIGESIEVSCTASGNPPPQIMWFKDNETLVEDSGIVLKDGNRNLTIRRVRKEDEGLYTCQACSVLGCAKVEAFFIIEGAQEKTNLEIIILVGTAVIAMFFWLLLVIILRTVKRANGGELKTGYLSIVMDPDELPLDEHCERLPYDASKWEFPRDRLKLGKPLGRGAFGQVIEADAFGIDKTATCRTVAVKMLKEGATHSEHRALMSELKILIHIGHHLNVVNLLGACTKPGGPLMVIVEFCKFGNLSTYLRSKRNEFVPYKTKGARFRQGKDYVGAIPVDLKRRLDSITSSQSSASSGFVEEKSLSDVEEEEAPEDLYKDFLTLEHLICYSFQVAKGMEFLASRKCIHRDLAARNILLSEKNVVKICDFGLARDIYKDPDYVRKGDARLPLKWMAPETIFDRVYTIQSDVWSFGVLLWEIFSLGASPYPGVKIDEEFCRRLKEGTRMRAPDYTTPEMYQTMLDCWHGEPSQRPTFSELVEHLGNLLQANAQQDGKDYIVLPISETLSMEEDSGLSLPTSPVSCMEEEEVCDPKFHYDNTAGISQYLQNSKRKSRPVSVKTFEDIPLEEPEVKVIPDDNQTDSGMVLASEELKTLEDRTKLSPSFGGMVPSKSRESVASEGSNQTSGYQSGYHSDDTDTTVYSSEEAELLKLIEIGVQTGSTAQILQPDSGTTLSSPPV

Kit = molecular target: T6, Kit (Homo sapiens, UniProt P10721); assay: AlphaScreen kinase assay, Kit; conditions: read-out: IC50, activity toward kinase Kit
T6 construct: P1332.N6 BI PTP KIT M552-K948-X COD; His6 (N); made in house; host or cells: E. coli (PTP1B co-expressed)
T6 sequence (P10721 with tags, fused parts or gaps): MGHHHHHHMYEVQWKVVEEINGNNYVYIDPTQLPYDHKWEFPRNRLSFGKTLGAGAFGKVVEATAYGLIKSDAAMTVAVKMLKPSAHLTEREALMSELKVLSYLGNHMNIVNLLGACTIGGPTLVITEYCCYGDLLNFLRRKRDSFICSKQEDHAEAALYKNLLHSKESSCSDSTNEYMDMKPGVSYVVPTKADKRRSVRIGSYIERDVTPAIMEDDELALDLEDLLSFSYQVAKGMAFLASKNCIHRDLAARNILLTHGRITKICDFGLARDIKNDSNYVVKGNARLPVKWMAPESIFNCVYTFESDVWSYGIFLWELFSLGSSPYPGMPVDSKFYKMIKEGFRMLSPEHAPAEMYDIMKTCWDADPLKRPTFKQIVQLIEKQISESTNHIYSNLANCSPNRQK

IGF1R = IGF1R (Homo sapiens, UniProt P08069); assay: AlphaScreen kinase assay, IGF1R; conditions: read-out: IC50, activity toward kinase IGF1R
IGF1R, sequence (P08069 31-1367): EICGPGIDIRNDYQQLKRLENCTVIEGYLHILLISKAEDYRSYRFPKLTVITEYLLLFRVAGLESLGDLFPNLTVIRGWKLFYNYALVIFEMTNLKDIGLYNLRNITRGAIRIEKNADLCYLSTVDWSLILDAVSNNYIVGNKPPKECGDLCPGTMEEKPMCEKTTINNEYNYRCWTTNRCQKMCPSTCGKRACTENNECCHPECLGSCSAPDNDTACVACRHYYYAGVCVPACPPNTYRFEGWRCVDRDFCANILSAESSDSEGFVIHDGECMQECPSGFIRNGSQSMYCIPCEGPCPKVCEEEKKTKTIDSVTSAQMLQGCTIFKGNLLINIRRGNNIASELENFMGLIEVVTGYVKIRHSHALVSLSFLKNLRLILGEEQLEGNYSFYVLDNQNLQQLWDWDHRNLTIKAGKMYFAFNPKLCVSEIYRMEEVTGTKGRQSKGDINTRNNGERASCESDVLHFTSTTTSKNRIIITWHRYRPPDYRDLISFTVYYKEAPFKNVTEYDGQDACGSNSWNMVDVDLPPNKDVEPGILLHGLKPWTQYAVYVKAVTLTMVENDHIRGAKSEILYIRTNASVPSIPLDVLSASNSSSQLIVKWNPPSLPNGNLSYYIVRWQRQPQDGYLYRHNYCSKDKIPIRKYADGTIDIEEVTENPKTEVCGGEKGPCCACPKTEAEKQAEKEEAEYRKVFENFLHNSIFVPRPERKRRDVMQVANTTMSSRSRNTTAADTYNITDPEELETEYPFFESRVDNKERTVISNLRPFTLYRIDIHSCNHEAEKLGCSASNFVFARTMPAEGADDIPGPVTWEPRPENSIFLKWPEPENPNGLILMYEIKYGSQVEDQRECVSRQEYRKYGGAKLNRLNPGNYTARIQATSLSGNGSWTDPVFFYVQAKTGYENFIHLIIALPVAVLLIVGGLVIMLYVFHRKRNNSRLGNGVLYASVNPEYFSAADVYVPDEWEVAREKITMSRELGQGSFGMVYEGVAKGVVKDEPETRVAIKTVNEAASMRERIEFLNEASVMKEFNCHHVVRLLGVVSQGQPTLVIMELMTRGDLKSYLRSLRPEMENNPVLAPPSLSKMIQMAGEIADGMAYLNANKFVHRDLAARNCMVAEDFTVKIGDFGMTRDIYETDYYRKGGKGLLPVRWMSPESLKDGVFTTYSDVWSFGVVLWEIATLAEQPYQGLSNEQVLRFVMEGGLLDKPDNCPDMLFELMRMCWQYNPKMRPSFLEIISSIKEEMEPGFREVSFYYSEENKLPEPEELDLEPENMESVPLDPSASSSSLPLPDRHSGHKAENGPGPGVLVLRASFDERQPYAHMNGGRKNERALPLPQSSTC

Jnk3 = molecular target: T7, Jnk3 (Homo sapiens, UniProt P53779); assay: AlphaScreen kinase assay, Jnk3; conditions: read-out: IC50, activity toward kinase Jnk3
T7 construct: purchased Upstate Biotechnology

Gsk3β = Gsk3β (Homo sapiens, UniProt P49841); assay: AlphaScreen kinase assay, Gsk3β; conditions: read-out: IC50, activity toward kinase Gsk3β
Gsk3β, sequence (P49841 whole entry): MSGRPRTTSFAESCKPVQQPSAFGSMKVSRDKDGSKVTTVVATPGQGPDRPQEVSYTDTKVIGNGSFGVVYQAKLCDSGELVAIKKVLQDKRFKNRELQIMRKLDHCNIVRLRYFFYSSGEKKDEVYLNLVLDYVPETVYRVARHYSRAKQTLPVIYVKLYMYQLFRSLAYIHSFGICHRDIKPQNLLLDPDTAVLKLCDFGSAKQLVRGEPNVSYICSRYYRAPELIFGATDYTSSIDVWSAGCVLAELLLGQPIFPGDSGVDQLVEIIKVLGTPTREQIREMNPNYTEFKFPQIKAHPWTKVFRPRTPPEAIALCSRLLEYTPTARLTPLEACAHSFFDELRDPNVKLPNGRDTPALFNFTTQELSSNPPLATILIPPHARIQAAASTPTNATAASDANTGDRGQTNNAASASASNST
Outline: as §3

Ret = molecular target: T8, Ret (Homo sapiens, UniProt P07949); assay: AlphaScreen kinase assay, Ret; conditions: read-out: IC50, activity toward kinase Ret
T8 construct: P1378.pET-SF BI-PTP RET H661-R1012 HIS; made in house
T8 sequence (P07949 with tags, fused parts or gaps): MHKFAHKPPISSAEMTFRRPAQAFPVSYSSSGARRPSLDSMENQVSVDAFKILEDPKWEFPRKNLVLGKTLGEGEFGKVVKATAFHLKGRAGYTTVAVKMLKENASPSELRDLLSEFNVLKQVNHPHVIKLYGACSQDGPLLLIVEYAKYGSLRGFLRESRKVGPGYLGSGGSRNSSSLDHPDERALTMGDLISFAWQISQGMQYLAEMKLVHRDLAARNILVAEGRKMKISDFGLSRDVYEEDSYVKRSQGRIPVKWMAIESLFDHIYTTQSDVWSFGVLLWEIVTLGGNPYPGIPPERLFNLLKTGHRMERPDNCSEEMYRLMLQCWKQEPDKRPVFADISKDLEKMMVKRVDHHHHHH

Zap70 = molecular target: T9, Zap70 (Homo sapiens, UniProt P43403); assay: AlphaScreen kinase assay, Zap70; conditions: read-out: IC50, activity toward kinase Zap70
T9 construct: P1868.pFastBac1 ZAP70 D327-G606 HIS, WT; His7 (HHHHHHH) (C); made in house
T9 sequence (P43403 with tags, fused parts or gaps): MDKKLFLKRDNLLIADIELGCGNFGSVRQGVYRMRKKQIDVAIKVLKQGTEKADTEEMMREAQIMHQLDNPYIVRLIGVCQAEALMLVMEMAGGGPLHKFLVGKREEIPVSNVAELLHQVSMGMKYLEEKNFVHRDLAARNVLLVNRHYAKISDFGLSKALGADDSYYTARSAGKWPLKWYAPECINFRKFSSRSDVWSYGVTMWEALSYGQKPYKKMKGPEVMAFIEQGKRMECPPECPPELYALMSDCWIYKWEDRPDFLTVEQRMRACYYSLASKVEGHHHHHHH
Outline: as §3

IKK beta = molecular target: T10, IKK beta (Homo sapiens, UniProt O14920); assay: AlphaScreen kinase assay, IKK beta; conditions: read-out: IC50, activity toward kinase IKK beta
T10 sequence (O14920 1-756): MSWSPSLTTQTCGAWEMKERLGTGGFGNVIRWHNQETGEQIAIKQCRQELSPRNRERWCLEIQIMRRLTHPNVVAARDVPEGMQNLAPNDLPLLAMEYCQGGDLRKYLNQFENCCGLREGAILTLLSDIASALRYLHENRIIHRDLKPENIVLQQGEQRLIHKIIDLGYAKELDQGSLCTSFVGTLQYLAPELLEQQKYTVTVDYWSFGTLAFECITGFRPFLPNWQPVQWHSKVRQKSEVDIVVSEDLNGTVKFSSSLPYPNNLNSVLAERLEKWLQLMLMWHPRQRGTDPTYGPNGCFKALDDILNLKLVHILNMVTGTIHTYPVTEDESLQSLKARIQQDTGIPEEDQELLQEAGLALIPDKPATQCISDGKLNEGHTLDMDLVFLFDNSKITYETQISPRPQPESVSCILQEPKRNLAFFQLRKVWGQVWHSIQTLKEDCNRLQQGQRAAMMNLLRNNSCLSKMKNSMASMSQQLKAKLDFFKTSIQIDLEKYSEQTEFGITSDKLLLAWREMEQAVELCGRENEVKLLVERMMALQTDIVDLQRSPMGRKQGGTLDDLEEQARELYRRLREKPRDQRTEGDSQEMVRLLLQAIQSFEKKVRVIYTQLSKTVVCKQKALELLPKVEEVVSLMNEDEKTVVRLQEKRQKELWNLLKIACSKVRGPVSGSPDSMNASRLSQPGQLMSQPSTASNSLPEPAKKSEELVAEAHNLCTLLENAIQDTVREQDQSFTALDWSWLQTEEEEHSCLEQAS

Pyk2 = molecular target: T11, Pyk2 (Homo sapiens, UniProt Q14289); assay: AlphaScreen kinase assay, Pyk2; conditions: read-out: IC50, activity toward kinase Pyk2
T11 construct: purchased Upstate Biotechnology
Description: AlphaScreen assays were done using compounds dissolved in DMSO to a concentration of 20 mM. The compounds were diluted accordingly to the desired final concentrations in each sample well, using 1:3 serial dilution for a total of 8 concentration points. Plates were prepared such that each kinase reaction is 20 μl in 1× kinase buffer, 5% DMSO and 10 μM ATP. After incubation of the kinase reaction for 1 hour at room temperature, 5 μl of donor beads in stop buffer (50 mM EDTA in 1× kinase buffer) was added, the sample was mixed and incubated for 20 minutes at room temperature before adding 5 μl of acceptor beads in stop buffer. The samples were incubated for 60 minutes at room temperature and the signal per well was read on AlphaQuest reader.

c-Raf-1 = molecular target: T12, c-Raf-1 (Homo sapiens, UniProt P04049); assay: AlphaScreen kinase assay, c-Raf-1; conditions: read-out: IC50, activity toward kinase c-Raf-1
T12 construct: purchased Upstate Biotechnology

FGFR1 = molecular target: T13, FGFR1 (Homo sapiens, UniProt P11362, C488A/C584S); assay: AlphaScreen kinase assay, FGFR1; conditions: read-out: IC50, activity toward kinase FGFR
T13 construct: P1351.pET N6 BI-PTP FGFR A458-E765-X C488A, C584S; made in house; host or cells: E. coli (PTP1B co-expressed)

B-Raf = molecular target: T14, B-Raf (Homo sapiens, UniProt P15056); assay: AlphaScreen kinase assay, B-Raf; conditions: read-out: IC50, activity toward kinase B-Raf
T14 construct: purchased Upstate Biotechnology

Btk = molecular target: T15, Btk (Homo sapiens, UniProt Q06187); assay: Z'-Lyte FRET kinase assay (Invitrogen), Btk; conditions: read-out: IC50, activity toward kinase Btk
T15 construct: purchased Invitrogen (assay run by Invitrogen)
T15 sequence (Q06187 whole entry): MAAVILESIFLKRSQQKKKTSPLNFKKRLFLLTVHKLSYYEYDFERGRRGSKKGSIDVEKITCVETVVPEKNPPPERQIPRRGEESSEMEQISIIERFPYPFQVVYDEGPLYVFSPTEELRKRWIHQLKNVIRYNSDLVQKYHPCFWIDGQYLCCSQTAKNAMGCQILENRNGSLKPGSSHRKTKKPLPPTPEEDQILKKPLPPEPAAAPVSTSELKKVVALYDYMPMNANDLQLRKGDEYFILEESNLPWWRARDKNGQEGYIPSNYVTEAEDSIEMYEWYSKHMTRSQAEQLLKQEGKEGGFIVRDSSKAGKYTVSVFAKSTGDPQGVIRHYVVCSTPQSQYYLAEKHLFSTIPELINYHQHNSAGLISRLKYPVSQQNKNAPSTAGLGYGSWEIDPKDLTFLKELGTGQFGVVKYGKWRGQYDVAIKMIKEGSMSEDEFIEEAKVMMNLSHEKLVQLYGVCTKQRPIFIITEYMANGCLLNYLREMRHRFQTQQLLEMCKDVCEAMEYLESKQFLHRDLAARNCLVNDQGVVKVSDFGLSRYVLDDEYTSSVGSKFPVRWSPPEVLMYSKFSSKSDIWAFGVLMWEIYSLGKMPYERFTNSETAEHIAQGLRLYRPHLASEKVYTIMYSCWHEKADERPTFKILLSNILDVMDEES

Measured: IC50

Plk1, sequence (P53350 whole entry): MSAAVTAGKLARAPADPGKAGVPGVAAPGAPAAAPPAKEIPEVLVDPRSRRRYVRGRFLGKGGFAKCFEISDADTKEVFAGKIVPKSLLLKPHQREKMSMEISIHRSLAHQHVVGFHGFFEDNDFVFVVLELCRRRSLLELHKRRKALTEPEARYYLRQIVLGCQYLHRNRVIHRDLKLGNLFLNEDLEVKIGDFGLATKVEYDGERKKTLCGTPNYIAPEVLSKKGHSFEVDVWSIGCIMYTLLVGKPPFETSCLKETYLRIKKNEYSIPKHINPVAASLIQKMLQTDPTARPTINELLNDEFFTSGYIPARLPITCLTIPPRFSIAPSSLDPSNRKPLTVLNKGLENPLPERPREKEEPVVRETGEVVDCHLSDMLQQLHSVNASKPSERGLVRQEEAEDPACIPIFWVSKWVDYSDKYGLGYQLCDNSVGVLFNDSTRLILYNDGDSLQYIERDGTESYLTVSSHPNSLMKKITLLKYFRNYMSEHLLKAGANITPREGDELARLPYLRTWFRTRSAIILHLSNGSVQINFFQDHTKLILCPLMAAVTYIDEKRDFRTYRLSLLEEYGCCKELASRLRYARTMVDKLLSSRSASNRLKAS

OCc1cccc(-c2ccnc3[nH]cc(Sc4ccccc4)c23)c1 [Compound P-0146]
≤ 10 µM: Plk1 | Met | B-Raf V600E | Stk6 | Jak3

Nc1cccc(-c2cnc3[nH]ccc3c2)c1 [Compound P-0136]
≤ 10 µM: Kdr | Stk6 | Kit | IGF1R

COc1ccc(-c2cnc3[nH]ccc3c2)cc1OC [Compound P-0212]
≤ 10 µM: Kdr | Stk6 | IGF1R

COc1cccc(-c2cnc3[nH]ccc3c2)c1 [Compound P-0213]
≤ 10 µM: Kdr | Stk6 | Jnk3 | Kit | IGF1R

Clc1ccc(Cc2c[nH]c3nccc(-c4ccsc4)c23)cn1 [Compound P-0123]
≤ 10 µM: Gsk3β | Ret | Plk1 | Zap70 | Stk6 | Kit

c1cc(-c2noc(C3CC3)n2)c2cc[nH]c2n1 [Compound P-0128]
≤ 10 µM: Plk1 | Kdr | Stk6 | IKK beta

CC(C)S(=O)(=O)Nc1ccc(F)c(C(O)c2c[nH]c3ncc(Br)cc23)c1F (stereo not shown) [Compound P-0178]
≤ 10 µM: Plk1 | Pyk2 | c-Raf-1 | B-Raf V600E | FGFR1 | B-Raf | Jak3

NC(=O)c1cccc(-c2ccnc3[nH]cc(C(=O)c4ccc(Cl)cc4)c23)c1 [Compound P-0135]
≤ 10 µM: Gsk3β | Ret | Plk1 | Kdr | B-Raf V600E | IKK beta | Btk

O=C(c1cc(O)ccc1F)c1c[nH]c2nccc(-c3ccccc3)c12 [Compound P-0863]
≤ 10 µM: Ret | Plk1 | c-Raf-1 | B-Raf V600E | B-Raf | Jak3

NC(=O)c1ccc(-c2ccnc3[nH]cc(C(=O)c4ccc(Cl)cc4)c23)cc1 [Compound P-0085]
≤ 10 µM: Gsk3β | Ret | Plk1 | Kdr | B-Raf V600E | IKK beta | Btk

OCc1cccc(-c2cnc3[nH]ccc3c2)c1 [Compound P-0157]
≤ 10 µM: Kdr | Stk6 | Kit | IGF1R
